Results reported in ChEMBL document CHEMBL1255194, “A stereo-controlled synthesis of 2,4-dimethyl-4-hydroxy-16-phenylhexadecanoic acid 1,4-lactone and its PPAR activities” (Bioorg Med Chem Lett, 2010).

Experiments:
[1] = molecular target: T1, Peroxisome proliferator-activated receptor delta (Mus musculus, UniProt P35396); assay: Transactivation of mouse PPARdelta expressed in CV1 cells; type: cell-based, CV-1
T1 sequence (P35396 whole entry): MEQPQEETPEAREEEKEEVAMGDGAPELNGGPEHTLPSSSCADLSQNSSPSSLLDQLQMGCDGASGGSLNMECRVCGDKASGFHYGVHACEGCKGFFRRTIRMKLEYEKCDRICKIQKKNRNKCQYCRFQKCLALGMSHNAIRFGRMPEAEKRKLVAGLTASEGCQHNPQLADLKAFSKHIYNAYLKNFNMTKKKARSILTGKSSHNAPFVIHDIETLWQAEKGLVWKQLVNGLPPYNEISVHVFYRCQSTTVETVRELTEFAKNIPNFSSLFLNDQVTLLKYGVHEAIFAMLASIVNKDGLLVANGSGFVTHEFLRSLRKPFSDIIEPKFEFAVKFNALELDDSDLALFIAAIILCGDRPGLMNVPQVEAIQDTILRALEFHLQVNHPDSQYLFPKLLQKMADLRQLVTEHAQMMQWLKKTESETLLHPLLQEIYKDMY

[2] = molecular target: T2, Peroxisome proliferator-activated receptor alpha (Mus musculus, UniProt P23204); assay: Transactivation of mouse PPARalpha expressed in CV1 cells; type: cell-based, CV-1
T2 sequence (P23204 whole entry): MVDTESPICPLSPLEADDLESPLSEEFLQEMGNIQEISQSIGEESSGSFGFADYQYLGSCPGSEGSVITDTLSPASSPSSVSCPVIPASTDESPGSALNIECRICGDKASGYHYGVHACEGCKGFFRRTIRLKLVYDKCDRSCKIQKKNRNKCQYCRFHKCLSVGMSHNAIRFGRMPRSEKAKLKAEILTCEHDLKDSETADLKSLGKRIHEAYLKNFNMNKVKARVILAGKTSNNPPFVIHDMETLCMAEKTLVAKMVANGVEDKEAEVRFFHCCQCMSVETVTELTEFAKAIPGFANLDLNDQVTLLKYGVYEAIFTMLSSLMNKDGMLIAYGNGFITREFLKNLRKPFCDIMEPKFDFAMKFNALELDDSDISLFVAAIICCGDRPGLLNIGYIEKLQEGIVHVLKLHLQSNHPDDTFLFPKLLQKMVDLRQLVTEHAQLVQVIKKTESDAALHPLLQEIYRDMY

[3] = molecular target: T3, Peroxisome proliferator-activated receptor gamma (Mus musculus, UniProt P37238); assay: Transactivation of mouse PPARgamma expressed in CV1 cells at 100 uM; type: cell-based; settings: cv-1
T3 sequence (P37238 whole entry): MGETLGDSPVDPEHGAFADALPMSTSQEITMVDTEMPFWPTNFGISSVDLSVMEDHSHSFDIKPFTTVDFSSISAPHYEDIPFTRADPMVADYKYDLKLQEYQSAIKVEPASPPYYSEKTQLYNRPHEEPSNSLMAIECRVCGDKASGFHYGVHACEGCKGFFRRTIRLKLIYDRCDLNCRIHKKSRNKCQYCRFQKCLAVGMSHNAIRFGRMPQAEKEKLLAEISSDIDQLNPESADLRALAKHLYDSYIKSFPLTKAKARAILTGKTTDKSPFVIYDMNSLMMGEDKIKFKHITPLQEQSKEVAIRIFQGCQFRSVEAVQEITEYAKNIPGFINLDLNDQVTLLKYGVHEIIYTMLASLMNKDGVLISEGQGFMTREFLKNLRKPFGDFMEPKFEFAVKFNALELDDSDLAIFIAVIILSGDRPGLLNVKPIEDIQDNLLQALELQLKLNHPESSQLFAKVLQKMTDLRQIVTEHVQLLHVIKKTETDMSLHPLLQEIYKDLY

C[C@@H]1C[C@](C)(CCCCCCCCCCCCc2ccccc2)OC1=O
EC50 [1]: 34 µM
EC50 [2]: 39 µM
EC50 [3]: Not Active

C[C@@H]1C[C@@](C)(CCCCCCCCCCCCc2ccccc2)OC1=O
EC50 [1]: 9 µM
EC50 [2]: 12 µM
EC50 [3]: Not Active

C[C@H]1C[C@](C)(CCCCCCCCCCCCc2ccccc2)OC1=O (stereo in doubt)
EC50 [1]: 16 µM
EC50 [2]: 13 µM
EC50 [3]: Not Active

C[C@H]1C[C@@](C)(CCCCCCCCCCCCc2ccccc2)OC1=O (stereo in doubt)
EC50 [1]: 22 µM
EC50 [2]: 24 µM
EC50 [3]: Not Active

C[C@H]1C[C@@](C)(CCCCCCCCCCCCc2ccccc2)OC1=O (stereo in doubt; 1a)
EC50 ([1]; cv-1): 22 µM
EC50 [2]: 20 µM

C[C@H]1C[C@](C)(CCCCCCCCCCCCc2ccccc2)OC1=O (stereo in doubt; (+)-1c)
EC50 [1]: 24 µM
EC50 [2]: 25 µM
